≈ marks a conversion by molar mass, not a printed value.

The test deals with P388. Description: Cytotoxicity against mouse P388 cells. The format is functional. As to conditions: read-out: ED50 (the source's name).
Turning to `CC(=O)OCC1=CC(C)=C[C@@]2(C)C[C@]3(C[C@H]12)C(=O)O[C@H]1O[C@H]13` [SPIROTUBIPOLIDE], the EC50 was found to be 3.24 µg/mL (≈ 10.6 µM).

With `CC1=CC=C[C@@]2(C)C[C@@H]3OC(=O)C(C)=C3C[C@@H]12` [TUBIPOLIDE B], the EC50 came out at 3.69 µg/mL (≈ 16 µM).

Regarding `CC(=O)OCC1=CC=C[C@@]2(C)C=C3OC(=O)C(C)=C3C[C@@H]12` [TUBIPOLIDE G], the EC50 was 4.01 µg/mL (≈ 14 µM).
